Patent publication US20130210167A1, “IMMUNOASSAY FOR PYRROLIDINOPHENONES” (RANDOX LABORATORIES LIMITED, priority 2012, published 2013)
Counter-ions that a name gives are not always drawn. Like-named read-outs stand apart in the source and are kept apart here.

System: polyclonal antibody raised to Immunogen IV
Assay: Competitive biochip immunoassay of pyrrolidinophenones and potential cross-reactants (Evidence Investigator)
Type: binding, sheep
[1] = Table 2, further cross-reactivity results, competition with Hapten-A HRP conjugate

Compound | % Cross-reactivity [%] | other results
COc1cc(CC(C)N)cc(OC)c1OC.Cl (racemic) [(+/−)-3,4,5-Trimethoxyamphetamine hydrochloride] | <1 | 
CCCC(C(=O)c1ccc2ccccc2c1)N1CCCC1.Cl (racemic) [(RS)-1-(2-Naphthyl)-2-(pyrrolidin-l-yl)pentanone HCl] |  | % Cross-Reactivity: 44%
CCCCC(C(=O)c1ccc(C)cc1)N1CCCC1.Cl (racemic) [(RS)-1-(4-Methylphenyl)-2-(pyrrolidin-1-yl)hexanone HCl] | 48.4 | 
CCC(C(=O)c1ccc(C)cc1)N1CCCC1.Cl (racemic) [(RS)-1-(4-Methylphenyl)-2-(pyrrolidin-l-yl)butanone HCl] |  | % Cross-Reactivity: 34%
CCC(C(=O)c1ccc2c(c1)OCO2)N1CCCC1 (racemic) [(RS)-1-(Benzo[d][1,3]dioxol-5-yl)-2-(pyrrolidin-1-yl)butanone HCl] |  | % Cross-Reactivity: 192%
CCCC(C(=O)c1ccc2c(c1)OCO2)N1CCCC1.Cl (racemic) [(RS)-1-(Benzo[d][1,3]dioxol-5-yl)-2-(pyrrolidin-1-yl)pentanone HCl] | 100 | % Cross-Reactivity: 100%
CC(C(=O)c1ccc2c(c1)OCO2)N1CCCC1.Cl (racemic) [(RS)-1-(Benzo[d][1,3]dioxol-5-yl)-2-(pyrrolidin-1-yl)propanone HCl] |  | % Cross-Reactivity: 12%
CNC(C)Cc1ccc2c(c1)OCO2 (racemic) [(RS)-1-(Benzo[d][1,3]dioxol-5-yl)-N-methylpropan-2-amine] |  | % Cross-Reactivity: <1%
CC(N)Cc1ccc2c(c1)OCO2 (racemic) [(RS)-1-(benzo[d][1,3]dioxol-5-yl)propan-2-amine] |  | % Cross-Reactivity: <1%
Cl.NC1(c2ccccc2Cl)CCCCC1=O (racemic) [(±)-Norketamine HCl] | <1 | 
CCCC(C(=O)c1ccc(C)cc1)N1CCCC1 (racemic) [Pyrovalerone HCl, (RS)-1-(4-methylphenyl)-2-(1-pyrrolidinyl)pentan-1-one] | 44.4 | 
CCC(=O)OC(Cc1ccccc1)(c1ccccc1)C(C)CNC.O=C(O)/C=C\C(=O)O (single isomer, unassigned; (+)) [(+)-Norpropoxyphene maleate] | <1 | 
CN1CCCC1c1cccnc1 (single isomer, unassigned; (-)) [(−)-Nicotine] | <1 | 
Oc1ccccc1O [1,2 Dihydroxybenzene (Catechol), 1,2 Dihydroxybenzene] | <1 | 
Cl.c1ccc(C2(N3CCCCC3)CCCCC2)cc1 [1-(1-phenylcyclohexyl)piperidine) HCl] | <1 | 
Cl.Clc1cccc(N2CCNCC2)c1 [1-(3-Chlorophenyl)piperazine HCl] |  | % Cross-Reactivity: <1%
CN1CCN(Cc2ccccc2)CC1.Cl.O [1-Benzyl-4-methylpiperazine HCl monohydrate] | <1 | 
c1ccc(CN2CCNCC2)cc1 [1-Benzylpiperazine] |  | % Cross-Reactivity: <1%
O=C(CN1CCCC1)c1ccccc1 [1-Phenyl-2(1-pyrrolidinyl)ethanone] |  | % Cross-reactivity [1]: <1%
CN1C(=O)CN=C(c2ccccc2F)c2cc(N)ccc21 [7-NH Flunitrazepam] | <1 | 
CN[C@@H](C)[C@@H](O)c1ccccc1.Cl [(+)-Pseudoephedrine HCl] |  | % Cross-Reactivity: <1%
CN1C(=O)CC[C@H]1c1cccnc1 [(−)-Cotinine] | <1 | 
CC(=O)Nc1ccc(O)cc1 [Acetaminophen] | <1 | 
CC(NC(C)(C)C)C(=O)c1cccc(Cl)c1 (stereo not shown) [Bupropion HCl] | <1 | 

Compound | % Cross-reactivity [%] | other results
CCC(NC)C(=O)c1ccc2c(c1)OCO2.Cl (stereo not shown) [Butylone HCl] | 11.4 | binding of antibodies of the invention (in words): able to bind
C[C@H](N)Cc1ccccc1 [D-Amphetamine] |  | % Cross-Reactivity: <1%
COc1ccc2c(c1)[C@]13CCCC[C@@H]1[C@H](C2)N(C)CC3 [Dextromethorphan hydrobromide monohydrate] | <1 | 
CCN(CC)C(C)C(=O)c1ccccc1 (stereo not shown) [Diethylpropion HCl] | <1 | 
CCO[C@@H]1O[C@H](C(=O)O)[C@@H](O)[C@H](O)[C@H]1O [Ethyl-glucuronide] | <1 | 
CNC(C)C(=O)c1ccc(F)cc1.Cl (stereo not shown) [Flephedrone HCl] | <1 | 
CNCCC(Oc1ccc(C(F)(F)F)cc1)c1ccccc1 (stereo not shown) [Fluoxetine HCl] | <1 | 
O=C(CCCN1CCC(O)(c2ccc(Cl)cc2)CC1)c1ccc(F)cc1 [Haloperidol] | <1 | 
CC(=O)Oc1ccc2c3c1O[C@H]1[C@@H](OC(C)=O)C=C[C@H]4[C@@H](C2)N(C)CC[C@@]341 [Heroin] | <1 | 
COc1ccc2c3c1O[C@H]1C(=O)CC[C@H]4[C@@H](C2)N(C)CC[C@]314 [Hydrocodone] | <1 | 
CC(C)Cc1ccc(C(C)C(=O)O)cc1 (stereo not shown) [Ibuprofen] | <1 | 
O=C(O)c1c[nH]c2ccccc12 [Indole-3-carboxylic acid] |  | % Cross-reactivity [1]: <1%
CCCCCn1cc(C(=O)c2cccc3ccccc23)c2ccccc21 [JWH-018] |  | % Cross-Reactivity: <1%
CCCCCn1cc(C(=O)Cc2ccccc2OC)c2ccccc21 [JWH-250] |  | % Cross-Reactivity: <1%
CCN(CC)C(=O)[C@@H]1C=C2c3cccc4[nH]cc(c34)C[C@H]2N(C)C1 [LSD] | <1 | 
O=C1Nc2ccc(Cl)cc2C(c2ccccc2Cl)=NC1O (stereo not shown) [Lorazepam] | <1 | 
CNC(C)C(=O)c1ccc(C)cc1 (stereo not shown) [Mephedrone HCl] |  | % Cross-Reactivity: <1%
CCCC(C)(COC(N)=O)COC(N)=O [Meprobamate] | <1 | 
COc1cc(CCN)cc(OC)c1OC [Mescaline HCl] |  | % Cross-Reactivity: <1%
CCC(=O)C(CC(C)N(C)C)(c1ccccc1)c1ccccc1 (stereo not shown) [Methadone] | <1 | 
CN[C@@H](C)Cc1ccccc1 [Methamphetamine HCl] |  | % Cross-Reactivity: <1%
Cc1ccccc1-n1c(C)nc2ccccc2c1=O [Methaqualone] | <1 | 
CNC(C)C(=O)c1ccc2c(c1)OCO2 (stereo not shown) [Methylone HCl] | <1 | 
COC(=O)C(c1ccccc1)C1CCCCN1 (stereo not shown) [Methylphenidate HCl] | <1 | 

Compound | % Cross-reactivity [%] | other results
C=CCN(CC=C)CCc1c[nH]c2ccc(OC)cc12 [N,N-diallyl-5-methoxytryptamine] | <1 | 
Cc1ccc(C(=O)C(C)N)cc1.Cl (stereo not shown) [Nor-mephedrone HCl] | <1 | 
CNCCCC1(c2ccc(F)cc2)OCc2cc(C#N)ccc21 (stereo not shown) [Norescitalopram] | <1 | 
CCOC(=O)C1(c2ccccc2)CCNCC1 [Normeperidine] | <1 | 
CNCCC=C1c2ccccc2CCc2ccccc21 [Nortriptyline HCl] | <1 | 
COc1ccc2c3c1O[C@H]1C(=O)CC[C@@]4(O)[C@@H](C2)N(C)CC[C@]314 [Oxycodone] | <1 | 
CCCC(NC)C(=O)c1ccccc1.Cl (stereo not shown) [Pentedrone HCl] | <1 | 
CCCC(NC)C(=O)c1ccc2c(c1)OCO2.Cl (stereo not shown) [Pentylone HCl] | 17.4 | binding of antibodies of the invention (in words): able to bind
NCCc1ccccc1.O=S(=O)(O)O [Phenethylamine sulphate] | <1 | 
O=C(O)c1ccccc1O [Salicylic acid] | <1 | 
COC(=O)[C@@H]1C[C@H](OC(C)=O)C(=O)[C@H]2[C@@]1(C)CC[C@H]1C(=O)O[C@H](c3ccoc3)C[C@]21C [Salvinorin A] |  | % Cross-Reactivity: <1%
CN[C@H]1CC[C@@H](c2ccc(Cl)c(Cl)c2)c2ccccc21 [Sertraline HCl] | <1 | 
COc1cccc(C2(O)CCCCC2CN(C)C)c1 (stereo not shown) [Tramadol HCl] | <1 | 
Cl.O=c1n(CCCN2CCN(c3cccc(Cl)c3)CC2)nc2ccccn12 [Trazadone HCl] | <1 | 
O=C(O)[C@H]1O[C@@H](OCC(Cl)(Cl)Cl)[C@H](O)[C@@H](O)[C@@H]1O [Urochloralic acid] |  | % Cross-reactivity [1]: <1%
CCN(C(C)=O)c1cccc(-c2ccnc3c(C#N)cnn23)c1 [Zaleplon] | <1 | 
Cc1ccc(-c2nc3ccc(C)cn3c2CC(=O)N(C)C)cc1 [Zolpidem tartrate] | <1 | 
CN1CCN(C(=O)OC2c3nccnc3C(=O)N2c2ccc(Cl)cn2)CC1 (stereo not shown) [Zopiclone] | <1 | 
(−)-11-nor-9-Carboxy-delta9-THC | <1 | 
(−)-Delta9-THC | <1 | 
Dihydroxymephedrone HCl | <1 | 
Prolatine | <1 | 
